Laboratory results taken from US5585381A, “Pyrimidine derivatives and pharmaceutical composition” (Kureha Chemical Industry Co., Ltd., priority 1994, dated 1996).
Where two headings read alike, the source gives them in different places.

What was measured:
[1] = system: kidney disease model rats; settings: cited from earlier work
[2] = biological target: T1, angiotensin II receptor subtype 1 (AT1) (Oryctolagus cuniculus, UniProt P34976); experiment: Binding to angiotensin II receptor subtype 1 (AT1); set-up: species or system rabbits (adrenal glands); settings: 100 μM; 3H-angiotensin II tracer
T1 construct: from adrenal glands in rabbits; from tissue; host or cells: rabbit adrenal glands
T1 sequence (P34976 1-359): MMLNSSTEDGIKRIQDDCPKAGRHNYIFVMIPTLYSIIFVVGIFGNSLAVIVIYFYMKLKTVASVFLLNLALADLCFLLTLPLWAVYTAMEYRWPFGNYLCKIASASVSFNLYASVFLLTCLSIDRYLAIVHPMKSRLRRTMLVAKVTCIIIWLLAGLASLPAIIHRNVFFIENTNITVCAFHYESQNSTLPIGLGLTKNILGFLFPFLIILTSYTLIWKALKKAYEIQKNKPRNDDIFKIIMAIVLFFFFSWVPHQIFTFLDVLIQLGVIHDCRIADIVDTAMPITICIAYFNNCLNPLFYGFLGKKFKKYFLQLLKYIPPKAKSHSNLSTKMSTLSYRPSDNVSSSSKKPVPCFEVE
Method: (§1) In this Example, the affinity to the angiotensin II receptor subtype 1 or subtype 2 was evaluated by a binding assay in accordance with the method described in Biochem. Pharmacol., 33, 4057-4062 (1984).
(§2) Specifically, the measurement of the total binding in the presence of each drug was performed as follows:
(§3) A mixture (final volume=0.25 ml) of a drug in a given concentration (the drug was dissolved in DMSO, and diluted to a double volume with a buffer attached to a drug discovery system to prepare sample for the assay; 0,025 ml), a tracer (0.025 ml), and receptors (0.2 ml) was incubated [in the case of the angiotensin II receptor subtype 1 (AT1), at room temperature for 3 hours, and in the case of the subtype 2 (AT2), at 37° C. for 1 hour]. Then, the reaction mixture was filtered with suction (GF/C filter was used in AT1, and GF/B filter was used in AT2). The filter papers after filtration with suction (the tracer bound to the receptors) were counted by a γ-well counter (ARC-500, Aloka). The non-specific bindings were measured by repeating the above method, except that a large excess amount of a displacer was added. The specific binding of the drug in the given concentration was calculated by subtracting the non-specific binding from the total binding, respectively.
(§4) In AT1 and AT2, the percentages to inhibit the bindings of radioactive ligands (tracer) to receptors by the drugs to be tested (IC50 value of concentration to show 50% inhibition, or binding inhibition % in 100 μM) were measured, using the drugs to be tested and control drugs in the given concentration.

[3] = Acute toxicity, single oral dose in mice; type: in vivo, ICR female mice; settings: 500 mg/kg single oral dose, 6 days, 5 per group
Method: Five-week-old ICR female mice (5 mice per group) were bred for acclimation for a week. Then, the compounds of the present invention were dissolved or dispersed in an aqueous solution of 0.5% methylcellulose, and orally administered to the mice in a single dosage (500 mg/kg).

[4] = system: kidney disease model rats; experiment: Action to depress blood pressure in kidney disease model rats (tail cuff); type: in vivo, Sprague-Dawley female rats; settings: 20 mg/kg per os
Method: (§5) The compounds of the present invention and the reference substance were forcedly administered per os to kidney disease model rats, and the action to depress blood pressure was observed. The kidney disease model rats were prepared by ligature of branches of renal artery in accordance with the conventional method, that is, the left hilum renalis of Sprague-Dawley female rats was exposed under anesthesia, and one of four secondary branches of renal artery was left unligated, while the remaining three branches were ligated, respectively. After a week, the hilum renalis (artery, vein, and ureter) of the right kidney were further ligated to thereby prepare the rats whose renal function was lowered to approximately 1/8 of the normal function. Each group consisted of eight rats. The drugs to be tested (20 mg/kg) were administered to each administering group, and only water was administered to control group. After two days from the administration, the systolic blood pressure was measured by the tail cuff method using a blood pressure measuring apparatus (UR5000; Ueda).

[5] = system: kidney disease model rats; experiment: Action to survival time of kidney diseased animals; type: in vivo, Sprague-Dawley female rats; settings: 20 mg/kg/day per os; observation eight weeks (upper limit); control 5.0
Method: as §5
The kidney disease model rats were prepared as in Example 21. Fifteen groups (8 rats per group) were prepared in a manner so that there was no major difference between the groups in the serum creatinine value and the urea nitrogen value indicating renal function. The rats in each group were allowed to freely take up feed and water. […] To the rats in the control group, only water was forcedly administered per os every day. If kidney diseases are aggravated, the rat will die of uremia. Thus, the survival time was observed as comprehensive indication of the improvement effect on the kidney diseases. The observation period was eight weeks. Thus if all rats survived, the average survival time is eight weeks and it is an upper limit.

[6] = biological target: T2, angiotensin II receptor subtype 2 (AT2) (Bos taurus, UniProt G5E6F7); experiment: Binding to angiotensin II receptor subtype 2 (AT2); set-up: species or system bovine (cerebellar cortex); settings: 125I-Tyr4-angiotensin II tracer, 37° C., 1 hour
T2 construct: from cerebellar cortex in bovine; from tissue; host or cells: bovine cerebellar cortex
T2 sequence (G5E6F7 1-362): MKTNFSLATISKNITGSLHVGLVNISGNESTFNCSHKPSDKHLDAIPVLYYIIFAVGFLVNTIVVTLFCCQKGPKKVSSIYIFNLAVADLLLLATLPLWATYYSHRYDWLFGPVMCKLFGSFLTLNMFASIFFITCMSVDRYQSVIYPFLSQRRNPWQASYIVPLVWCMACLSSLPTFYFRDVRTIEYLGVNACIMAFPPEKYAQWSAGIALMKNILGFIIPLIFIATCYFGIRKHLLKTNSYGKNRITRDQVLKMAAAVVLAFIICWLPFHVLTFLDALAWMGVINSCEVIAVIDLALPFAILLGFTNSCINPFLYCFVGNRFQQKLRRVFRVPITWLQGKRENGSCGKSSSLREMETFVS
Method: as §1, §2, §3, §4
from cerebellar cortex in bovine
tracer: ^125 I-Tyr^4 -angiotensin II

[7] = system: kidney disease model rats; experiment: Renal function indicatory value (action to kidney diseases); type: in vivo, Sprague-Dawley female rats; settings: 20 mg/kg/day per os, two weeks
Method: The kidney disease model rats were prepared by ligature of branches of renal artery in accordance with the conventional method, that is, the left hilum renalis of Sprague-Dawley female rats was exposed under anesthesia, and one of four secondary branches of renal artery was left unligated, while the remaining three branches were ligated, respectively. […] Each group consisted of eight rats. The drugs to be tested (20 mg/kg) were administered to each administering group, and only water was administered to control group. After two days from the administration, the systolic blood pressure was measured by the tail cuff method using a blood pressure measuring apparatus (UR5000; Ueda).
The kidney disease model rats were prepared as in Example 21. Fifteen groups (8 rats per group) were sleeked in a manner so that there were no major differences between each group in the serum creatinine value and the urea nitrogen value indicating renal function. The rats in each group were allowed to freely take up feed and water. […] To the rats in the control group, only water was forcedly administered per os every day. After two weeks, 0.2 ml of blood was collected from the carotid artery of the rat under anesthesia, and centrifuged to obtain serum. Using 25 μl of the serum, serum creatinine (Scr) was measured by a creatinine analytical instrument (Beckman). Using 10 μl of the serum, urea nitrogen (BUN) was measured by a BUN analytical instrument (Beckman). Creatinine clearance was evaluated as follows:
After serum creatinine measurement, rats were placed in urinary metabolic cages for 24 hours to collect urine. Urinary creatine concentration (Ucr) was measured by a creatinine analytical instrument, and total volume of urination (Uvol) was also measured. Creatinine clearance (CCr) was calculated by the following formula: [formula]

hyperlipemia model rats = settings: cited from earlier work
[8] = system: renal dysfunction model rats; settings: cited from earlier work

CCCN(Cc1ccc(-c2ccccc2-c2nnn[nH]2)cc1)c1ncccc1C(=O)O [A-81988, 2-[N-propyl-N-[[2'-(1H-tetrazol-5-yl)biphenyl-4-yl]methyl]amino]pyridine-3-carboxylic acid]
blood pressure [1]: the reduction of blood pressure was observed
proteinuria [1]: proteinuria was improved

CCCCC(=O)Nc1c(Cl)ncnc1NCc1ccc(C(=O)OC)cc1 [Compound No. 1, methyl 4-[[(6-chloro-5-valeramido)pyrimidin-4-yl]aminomethyl]benzoate]
inhibition at 100 µM [2]: 11%
Number of deaths/number of survivals [3]: 0/5
Blood pressure (average systolic) ([4]; after two days, control 210 mmHg): 210 mmHg
Average survival time [5]: 6.9 weeks
inhibition at 100 µM [6]: 0%
Creatinine clearance (CCr) ([7]; control 0.20): 0.29 mL/min
Creatinine (serum, Scr) ([7]; control 2.0): 1.7 mg/dL
Urea nitrogen (BUN) ([7]; control 100): 84 mg/dL

CCCCc1nc(Cl)c(CO)n1Cc1ccc(-c2ccccc2-c2nnn[nH]2)cc1 [DuP753, 2-butyl-4-chloro-5-(hydroxymethyl)-1-[[2'-(1H-tetrazol-5-yl)biphenyl-4-yl]methyl]imidazole]
blood pressure (hyperlipemia model rats; large dose more effective against the kidney disease): an evident reduction of blood pressure was observed
blood pressure (hyperlipemia model rats; lower dose): without practical effect to blood pressure
effect on kidney disease (hyperlipemia model rats; lower dose): the kidney disease was improved
action to depress blood pressure (in words) ([4]; comparison with control group): clearly showed the action to depress the blood pressure
blood pressure [8]: the reduction of blood pressure accompanied
effect on proteinuria and glomerulosclerosis [8]: effective against proteinuria and glomerulosclerosis
